Measured values reported in ChEMBL document CHEMBL3885881, “DrugMatrix”.

Species: Rattus norvegicus
Experiment: DrugMatrix - Regimen: Daily Repeat
Assay type: toxicity, organism-based, Sprague-Dawley
Parameters: regimen Daily Repeat, gender Male, age 6-8 weeks
Details: in vivo, po, route oral GAVAGE, vehicle .5 % CMC; for ABSOLUTE BASOPHIL / ABSOLUTE EOSINOPHIL / ABSOLUTE LYMPHOCYTE / ABSOLUTE MONOCYTE / ABSOLUTE SEGMENTED NEUTROPHIL / BASOPHIL / EOSINOPHIL / ERYTHROCYTE COUNT / HEMATOCRIT / HEMOGLOBIN / LEUKOCYTE COUNT / LYMPHOCYTE / MEAN CORPUSCULAR HEMOGLOBIN / MEAN CORPUSCULAR HEMOGLOBIN CONCENTRATION / MEAN CORPUSCULAR VOLUME / MONOCYTE / NEUTROPHIL / NUCLEATED RED BLOOD CELLS / PLATELET COUNT: tissue Blood; for ALANINE AMINOTRANSFERASE / ALBUMIN / ALKALINE PHOSPHATASE / ASPARTATE AMINOTRANSFERASE / BLOOD UREA NITROGEN / CARBON DIOXIDE / CHLORIDE / CHOLESTEROL / CREATINE PHOSPHOKINASE / CREATININE / GLUCOSE / LACTATE DEHYDROGENASE / LIPASE / PHOSPHORUS / POTASSIUM / SODIUM / TOTAL BILIRUBIN / TOTAL PROTEIN / URIC ACID: tissue Plasma
[1] = 10 mg/kg, 120 h, dose level Low, time 5 day
[2] = 2500 mg/kg, 72 h, dose level High, time 3 day
[3] = 2500 mg/kg, 120 h, dose level High, time 5 day

Compound: O=C1CN=C(c2ccccc2Cl)c2cc([N+](=O)[O-])ccc2N1 [CLONAZEPAM]
- ABSOLUTE BASOPHIL [1]: 0 CELLS/uL
- ABSOLUTE EOSINOPHIL [1]: 31 CELLS/uL
- ABSOLUTE LYMPHOCYTE [1]: 8153 CELLS/uL
- ABSOLUTE MONOCYTE [1]: 62 CELLS/uL
- ABSOLUTE SEGMENTED NEUTROPHIL [1]: 620.67 CELLS/uL
- BASOPHIL [1]: 0%
- EOSINOPHIL [1]: 0.33%
- ERYTHROCYTE COUNT [1]: 5.74 x10E6/uL
- HEMATOCRIT [1]: 35.3%
- HEMOGLOBIN [1]: 13.87 G/DL
- LEUKOCYTE COUNT [1]: 8.87 x10E3/uL
- LYMPHOCYTE [1]: 91.67%
- MEAN CORPUSCULAR HEMOGLOBIN [1]: 24.13 pg
- MEAN CORPUSCULAR HEMOGLOBIN CONCENTRATION [1]: 39.3 G/DL
- MEAN CORPUSCULAR VOLUME [1]: 61.43 fL
- MONOCYTE [1]: 0.67%
- NEUTROPHIL [1]: 7.33%
- NUCLEATED RED BLOOD CELLS [1]: 0 /100WBC
- PLATELET COUNT [1]: 1168 x10E3/uL
- ALANINE AMINOTRANSFERASE [1]: 54 u/L
- ALBUMIN [1]: 4.33 G/DL
- ALKALINE PHOSPHATASE [1]: 274.67 u/L
- ASPARTATE AMINOTRANSFERASE [1]: 97 u/L
- BLOOD UREA NITROGEN [1]: 18.67 mg/dL
- CARBON DIOXIDE [1]: 25.67 mmol/L
- CHLORIDE [1]: 98.67 MEQ/L
- CHOLESTEROL [1]: 75.33 mg/dL
- CREATINE PHOSPHOKINASE [1]: 826.67 u/L
- CREATININE [1]: 0.19 mg/dL
- GLUCOSE [1]: 177.67 mg/dL
- LACTATE DEHYDROGENASE [1]: 201 u/L
- LIPASE [1]: 10 u/L
- PHOSPHORUS [1]: 11.6 mg/dL
- POTASSIUM [1]: 5.92 MEQ/L
- SODIUM [1]: 138.97 MEQ/L
- TOTAL BILIRUBIN [1]: 0.13 mg/dL
- TOTAL PROTEIN [1]: 6.07 G/DL
- URIC ACID [1]: 1.63 mg/dL
- ABSOLUTE BASOPHIL [2]: 0 CELLS/uL
- ABSOLUTE EOSINOPHIL [2]: 0 CELLS/uL
- ABSOLUTE LYMPHOCYTE [2]: 8925.67 CELLS/uL
- ABSOLUTE MONOCYTE [2]: 256 CELLS/uL
- ABSOLUTE SEGMENTED NEUTROPHIL [2]: 1951.67 CELLS/uL
- BASOPHIL [2]: 0%
- EOSINOPHIL [2]: 0%
- ERYTHROCYTE COUNT [2]: 5.85 x10E6/uL
- HEMATOCRIT [2]: 36.6%
- HEMOGLOBIN [2]: 14.27 G/DL
- LEUKOCYTE COUNT [2]: 11.13 x10E3/uL
- LYMPHOCYTE [2]: 79%
- MEAN CORPUSCULAR HEMOGLOBIN [2]: 24.47 pg
- MEAN CORPUSCULAR HEMOGLOBIN CONCENTRATION [2]: 39.03 G/DL
- MEAN CORPUSCULAR VOLUME [2]: 62.67 fL
- MONOCYTE [2]: 2.33%
- NEUTROPHIL [2]: 18.67%
- NUCLEATED RED BLOOD CELLS [2]: 0.33 /100WBC
- PLATELET COUNT [2]: 1190 x10E3/uL
- ALANINE AMINOTRANSFERASE [2]: 88.33 u/L
- ALBUMIN [2]: 3.97 G/DL
- ALKALINE PHOSPHATASE [2]: 322 u/L
- ASPARTATE AMINOTRANSFERASE [2]: 132 u/L
- BLOOD UREA NITROGEN [2]: 19.33 mg/dL
- CARBON DIOXIDE [2]: 31.33 mmol/L
- CHLORIDE [2]: 100.33 MEQ/L
- CHOLESTEROL [2]: 88.67 mg/dL
- CREATINE PHOSPHOKINASE [2]: 910.33 u/L
- CREATININE [2]: 0.49 mg/dL
- GLUCOSE [2]: 134.33 mg/dL
- LACTATE DEHYDROGENASE [2]: 213.67 u/L
- LIPASE [2]: 11.33 u/L
- PHOSPHORUS [2]: 13.77 mg/dL
- POTASSIUM [2]: 6.47 MEQ/L
- SODIUM [2]: 143.17 MEQ/L
- TOTAL BILIRUBIN [2]: 0.2 mg/dL
- TOTAL PROTEIN [2]: 5.7 G/DL
- URIC ACID [2]: 0.57 mg/dL
- ABSOLUTE BASOPHIL [3]: 0 CELLS/uL
- ABSOLUTE EOSINOPHIL [3]: 0 CELLS/uL
- ABSOLUTE LYMPHOCYTE [3]: 10757.67 CELLS/uL
- ABSOLUTE MONOCYTE [3]: 124 CELLS/uL
- ABSOLUTE SEGMENTED NEUTROPHIL [3]: 1618.33 CELLS/uL
- BASOPHIL [3]: 0%
- EOSINOPHIL [3]: 0%
- ERYTHROCYTE COUNT [3]: 5.66 x10E6/uL
- HEMATOCRIT [3]: 34.97%
- HEMOGLOBIN [3]: 14.27 G/DL
- LEUKOCYTE COUNT [3]: 12.5 x10E3/uL
- LYMPHOCYTE [3]: 85.67%
- MEAN CORPUSCULAR HEMOGLOBIN [3]: 25.23 pg
- MEAN CORPUSCULAR HEMOGLOBIN CONCENTRATION [3]: 40.83 G/DL
- MEAN CORPUSCULAR VOLUME [3]: 61.8 fL
- MONOCYTE [3]: 1%
- NEUTROPHIL [3]: 13.33%
- NUCLEATED RED BLOOD CELLS [3]: 0 /100WBC
- PLATELET COUNT [3]: 964.33 x10E3/uL
- ALANINE AMINOTRANSFERASE [3]: 84 u/L
- ALBUMIN [3]: 3.93 G/DL
- ALKALINE PHOSPHATASE [3]: 331.67 u/L
- ASPARTATE AMINOTRANSFERASE [3]: 114 u/L
- BLOOD UREA NITROGEN [3]: 19 mg/dL
- CARBON DIOXIDE [3]: 27 mmol/L
- CHLORIDE [3]: 102.33 MEQ/L
- CHOLESTEROL [3]: 93 mg/dL
- CREATINE PHOSPHOKINASE [3]: 261 u/L
- CREATININE [3]: 0.2 mg/dL
- GLUCOSE [3]: 136.67 mg/dL
- LACTATE DEHYDROGENASE [3]: 217.67 u/L
- LIPASE [3]: 10.33 u/L
- PHOSPHORUS [3]: 9.8 mg/dL
- POTASSIUM [3]: 5.43 MEQ/L
- SODIUM [3]: 142.37 MEQ/L
- TOTAL BILIRUBIN [3]: 0.2 mg/dL
- TOTAL PROTEIN [3]: 5.73 G/DL
- URIC ACID [3]: 1.13 mg/dL
